Tests used:
[1] = external use on burn wounds in HSST; cited from earlier work
[2] = cited from earlier work; for pKa: Table 1, pKa of the parent weak acid of the sodium salt; for pKa1 / pKa2: 25° C.
[3] = Acid/base dissociation constants of weak acids and their sodium salts; settings: anion of the salt in water; for Kb: Kb=10^−pKb
[4] = at 25° C.; KCl and NaHCO3 values are assumed (NaHCO3: Leaist et al); cited from earlier work

## CCN(CC)CC(=O)Nc1c(C)cccc1C [lidocaine]
[1]
  dosage considered safe for external use: less than 400 mg

## O=C([O-])CC(O)(CC(=O)[O-])C(=O)[O-].[Na+].[Na+].[Na+] [Trisodium Citrate]
[2]
  pKa: 3.14

## CC(O)C(=O)O (stereo not shown) [Lactic Acid]
[3]
  Kb: 7.24*10^−12

## CC(O)C(=O)[O-].[Na+] (stereo not shown) [Sodium Lactate]
[2]
  pKa: 3.86

## O=C(O)CC(O)(CC(=O)O)C(=O)O [Citric Acid]
[2]
  pKa1: 2.92
  pKa2: 4.28
  pKa3: 5.21

## [Cl-].[K+] [KCl]
[4]
  diffusivity in water DAB: 13.6·10^−6 cm^2/s

## O=C([O-])O.[Na+] [Sodium Bicarbonate]
[2]
  pKa1: 6.35
  pKa2: 10.3
  pKa: 6.35
[3]
  Kb: 2.24*10^−6
[3]; pKb=14.00−pKa, 25° C.
  pKb: 7.65

From patent US12280144B2, “Gel compositions for mitigation of burn injuries, kits containing the gel compositions, and associated methods” (priority 2019, dated 2025)
